Laboratory results taken from paper PMC11879040, “Advancing systemic toxicity risk assessment: Evaluation of a NAM-based toolbox approach” (Toxicological Sciences, 2024).
Read-outs that look alike come from different tables or passages of the source.

Legend:
[1] = biological target: T1, Constitutive androstane receptor CAR, NR1I3 (h) (Homo sapiens, UniProt Q14994); type: biochemical
T1 sequence (Q14994 1-352): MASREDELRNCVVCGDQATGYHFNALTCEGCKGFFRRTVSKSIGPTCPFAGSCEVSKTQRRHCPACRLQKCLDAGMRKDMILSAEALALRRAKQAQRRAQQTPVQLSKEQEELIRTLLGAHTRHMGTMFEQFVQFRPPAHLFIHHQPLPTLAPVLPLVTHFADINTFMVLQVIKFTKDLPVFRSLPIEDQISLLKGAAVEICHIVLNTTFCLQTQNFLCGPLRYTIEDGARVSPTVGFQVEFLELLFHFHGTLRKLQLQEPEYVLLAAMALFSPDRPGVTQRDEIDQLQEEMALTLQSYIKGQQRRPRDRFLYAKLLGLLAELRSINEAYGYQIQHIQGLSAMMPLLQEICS

[2] = PBK level L2; taken or scaled from references (median where several); ref [6],[7],[10],[19]; cited from earlier work
[3] = biological target: Glucocorticoid receptor, NR3C1 (h) (Homo sapiens, UniProt P04150); assay: IPP NR3C1 binding (agonist radioligand); settings: IPP screening at 10 uM; control dexamethasone
Glucocorticoid receptor, NR3C1 (h), sequence (P04150 whole entry): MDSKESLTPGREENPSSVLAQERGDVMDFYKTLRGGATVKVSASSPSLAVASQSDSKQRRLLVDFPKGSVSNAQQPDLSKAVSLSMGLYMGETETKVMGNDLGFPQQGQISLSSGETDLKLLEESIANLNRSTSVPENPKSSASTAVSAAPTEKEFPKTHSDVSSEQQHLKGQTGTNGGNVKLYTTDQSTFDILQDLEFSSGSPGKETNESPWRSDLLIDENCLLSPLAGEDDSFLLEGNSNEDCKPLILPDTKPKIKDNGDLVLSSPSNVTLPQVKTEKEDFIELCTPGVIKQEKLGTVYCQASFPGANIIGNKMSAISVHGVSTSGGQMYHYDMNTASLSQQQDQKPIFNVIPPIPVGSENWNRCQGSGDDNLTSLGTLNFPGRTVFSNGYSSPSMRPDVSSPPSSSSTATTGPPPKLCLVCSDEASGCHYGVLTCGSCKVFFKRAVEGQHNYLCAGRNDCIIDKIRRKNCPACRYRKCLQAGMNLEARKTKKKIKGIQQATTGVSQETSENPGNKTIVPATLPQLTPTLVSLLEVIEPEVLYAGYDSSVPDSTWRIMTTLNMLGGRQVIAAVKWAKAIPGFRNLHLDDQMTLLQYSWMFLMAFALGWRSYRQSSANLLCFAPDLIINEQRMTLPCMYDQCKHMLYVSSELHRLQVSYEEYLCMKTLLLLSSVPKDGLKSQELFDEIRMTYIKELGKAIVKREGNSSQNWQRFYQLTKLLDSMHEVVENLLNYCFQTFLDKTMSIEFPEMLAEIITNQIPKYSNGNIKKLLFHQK

dog = settings: ref ToxRefDB/Paul-Friedman et al. (2020)/regulatory opinions, cited from earlier work
[4] = biological target: T2, Retinoic Acid Receptor gamma, RARG (h) (Homo sapiens, UniProt P13631); assay: IPP RARG binding (assay unavailable by end of study); settings: 10 uM; ligand/control 9-cis-Retinoic acid; ** assay was unavailable by the end of the study
T2 construct: purchased Eurofins Cerep (SafetyScreen44-based IPP panel)
T2 sequence (P13631 whole entry): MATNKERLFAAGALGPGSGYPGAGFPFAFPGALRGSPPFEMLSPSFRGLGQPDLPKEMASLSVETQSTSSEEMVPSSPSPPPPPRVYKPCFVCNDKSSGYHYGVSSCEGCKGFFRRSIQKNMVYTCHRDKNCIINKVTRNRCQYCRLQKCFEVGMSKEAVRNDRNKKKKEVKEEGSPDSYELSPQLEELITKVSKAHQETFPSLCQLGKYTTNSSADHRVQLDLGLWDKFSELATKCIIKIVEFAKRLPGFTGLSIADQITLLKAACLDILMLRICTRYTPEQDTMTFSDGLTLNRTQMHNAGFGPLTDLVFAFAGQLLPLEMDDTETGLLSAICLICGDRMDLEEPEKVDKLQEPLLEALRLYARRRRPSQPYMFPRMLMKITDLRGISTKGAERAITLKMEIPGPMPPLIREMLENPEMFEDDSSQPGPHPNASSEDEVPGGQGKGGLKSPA

[5] = biological target: T3, Progesterone receptor, PGR (h) (Homo sapiens, UniProt P06401); assay: IPP PGR coactivator recruitment (antagonist); type: biochemical; settings: ligand progesterone
T3 sequence (P06401 1-933): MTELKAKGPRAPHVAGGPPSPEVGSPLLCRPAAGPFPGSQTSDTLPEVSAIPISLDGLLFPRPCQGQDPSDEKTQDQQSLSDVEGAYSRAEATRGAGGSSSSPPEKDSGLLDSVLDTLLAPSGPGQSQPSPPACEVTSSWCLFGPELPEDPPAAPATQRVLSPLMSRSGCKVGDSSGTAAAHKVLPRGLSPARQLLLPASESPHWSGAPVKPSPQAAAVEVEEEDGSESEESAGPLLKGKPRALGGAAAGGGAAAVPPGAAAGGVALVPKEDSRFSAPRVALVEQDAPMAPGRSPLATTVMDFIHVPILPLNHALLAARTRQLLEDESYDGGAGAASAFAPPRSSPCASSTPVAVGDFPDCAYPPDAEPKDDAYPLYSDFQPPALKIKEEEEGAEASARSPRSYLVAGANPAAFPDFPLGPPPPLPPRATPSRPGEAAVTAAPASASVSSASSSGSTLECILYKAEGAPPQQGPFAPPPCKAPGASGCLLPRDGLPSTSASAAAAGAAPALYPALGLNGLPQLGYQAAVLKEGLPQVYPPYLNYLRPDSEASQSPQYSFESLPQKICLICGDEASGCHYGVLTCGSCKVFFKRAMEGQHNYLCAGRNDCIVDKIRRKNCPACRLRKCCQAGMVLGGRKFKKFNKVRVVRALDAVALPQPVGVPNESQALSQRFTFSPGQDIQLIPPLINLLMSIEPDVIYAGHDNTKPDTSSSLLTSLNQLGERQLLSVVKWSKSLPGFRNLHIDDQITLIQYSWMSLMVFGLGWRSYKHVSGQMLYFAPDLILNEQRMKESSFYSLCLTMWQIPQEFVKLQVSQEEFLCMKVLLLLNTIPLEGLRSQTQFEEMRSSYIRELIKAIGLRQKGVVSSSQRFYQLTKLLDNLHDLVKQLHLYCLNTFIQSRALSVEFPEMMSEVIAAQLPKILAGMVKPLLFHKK

[6] = biological target: T3, Progesterone receptor, PGR (h); assay: biochemical; type: biochemical; settings: agonist, progesterone for control
[7] = biological target: T4, Peroxisome proliferator-activated receptor gamma, PPARG (h) (Homo sapiens, UniProt P37231); assay: IPP PPARG coactivator recruitment (antagonist); type: biochemical; settings: 10 uM, ligand rosiglitazone
T4 sequence (P37231 1-505): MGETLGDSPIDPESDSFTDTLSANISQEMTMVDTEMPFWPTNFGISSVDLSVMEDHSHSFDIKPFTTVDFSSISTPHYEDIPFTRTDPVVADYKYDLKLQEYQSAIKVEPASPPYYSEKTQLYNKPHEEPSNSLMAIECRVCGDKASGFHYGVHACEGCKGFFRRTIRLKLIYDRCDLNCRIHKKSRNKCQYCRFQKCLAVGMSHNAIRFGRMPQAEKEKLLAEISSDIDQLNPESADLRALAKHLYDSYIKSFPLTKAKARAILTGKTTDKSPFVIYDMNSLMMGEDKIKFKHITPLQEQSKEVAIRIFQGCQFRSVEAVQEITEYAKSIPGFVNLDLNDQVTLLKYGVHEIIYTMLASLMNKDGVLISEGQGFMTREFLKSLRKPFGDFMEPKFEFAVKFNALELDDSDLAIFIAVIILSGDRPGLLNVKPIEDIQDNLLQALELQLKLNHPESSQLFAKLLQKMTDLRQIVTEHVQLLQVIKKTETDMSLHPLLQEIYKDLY

[8] = biological target: T4, Peroxisome proliferator-activated receptor gamma, PPARG (h); assay: IPP PPARG coactivator recruitment (agonist); type: biochemical; settings: 10 uM, rosiglitazone for control
[9] = biological target: Vitamin D3 receptor, VDR (h) (Homo sapiens, UniProt P11473); type: biochemical; settings: 10 uM; antagonist; ligand calcitriol
Vitamin D3 receptor, VDR (h), sequence (P11473 whole entry): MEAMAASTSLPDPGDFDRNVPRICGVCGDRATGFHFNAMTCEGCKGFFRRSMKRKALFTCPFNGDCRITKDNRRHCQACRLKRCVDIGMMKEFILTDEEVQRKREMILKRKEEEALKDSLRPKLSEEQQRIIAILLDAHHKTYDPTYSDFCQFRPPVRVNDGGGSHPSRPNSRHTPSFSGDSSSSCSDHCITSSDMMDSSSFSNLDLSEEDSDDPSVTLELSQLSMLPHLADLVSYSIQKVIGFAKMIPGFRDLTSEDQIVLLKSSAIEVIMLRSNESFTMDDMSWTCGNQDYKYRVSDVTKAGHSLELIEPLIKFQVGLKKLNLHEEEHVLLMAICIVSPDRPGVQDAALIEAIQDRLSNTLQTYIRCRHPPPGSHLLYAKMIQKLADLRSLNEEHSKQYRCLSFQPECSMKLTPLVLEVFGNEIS

[10] = intestinal absorption (PBK input); type: in vitro ADME; settings: levels L2/L3, converted from [38]
[11] = cited from earlier work
[12] = PBK model plasma Cmax estimate (Gastroplus 9.8; levels L1, L2, L3); design: species or system human; settings: therapeutic uses
[13] = human, Oral 100 mg, Tablet, 27 healty male, Fasted, validation, ref Shank, R.P. et al. (2005) Epilepsy Research 63:103-112
[14] = human, Oral 200 mg, Tablet, 25 healty male, Fasted, calibration, ref Shank, R.P. et al. (2005) Epilepsy Research 63:103-112
[15] = human, Oral 400 mg, Tablet, 26 healty male, Fasted, validation, ref Shank, R.P. et al. (2005) Epilepsy Research 63:103-112
[16] = Oral 500 mg tablet, Preparation A: non-shellaced core, sugar coated, fasted, 5 healthy male, calibration, ref Hart 1975
[17] = Oral 500 mg tablet, Preparation B: shellaced core, sugar coated, fasted, 5 healthy male, calibration, ref Hart 1975
[18] = Oral 500 mg tablet, Preparation C: film-coated, fasted, 5 healthy male, calibration, ref Hart 1975
[19] = human, Oral 500 mg repeat every 12 h, 2 x 250 mg tablets (Terramycin), 4 healthy male, Fasted, measured data for day 1 and day 7, validation, ref GREEN, BROWN & CALVERT, European Journal of Clinical Pharmacology (1979) 10:245-250, cited in EPA (1987)
[20] = human, Oral 500 mg, Preparation D: tablet, film-coated (Oxytetracycline hydrochloride), 5 healthy male, Fasted, calibration, ref HART, Br. J. clin. Pharmac. (1975), 2, 277-280
[21] = human, Oral 500 mg, Preparation E: Capsule (Oxytetracycline hydrochloride), 5 healthy male, Fasted, calibration, ref HART, Br. J. clin. Pharmac. (1975), 2, 277-280

## CCOP(=S)(OCC)Oc1nc(Cl)c(Cl)cc1Cl [Chlorpyrifos, O,O-Diethyl O-(3,5,6-trichloropyridin-2-yl) phosphorothioate]
[1]
  IPP screening %, Coactivator recruitment: -5.1%
[2]
  Intrinsic Liver Clearance: 131.95 L/h
[3]
  Specific binding: 29.4%
dog; 2 years, inhibition of plasma and erythrocyte ChE
  PoD (NOAEL): 0.01 mg/kg bw/day

## CC(C)(C)c1ccc(CCOc2ncnc3ccccc23)cc1 [Fenazaquin, 4-[2-(4-tert-Butylphenyl)ethoxy]quinazoline]
[4]
  IPP screening %, Specific binding: 35.0%

## mixture of 2- and 3-tert-butyl-4-methoxyphenol [Butylated Hydroxyanisole]
[5]; 10 uM
  IPP screening %, Coactivator recruitment: 4.0%
[6]; 10 uM
  IPP screening %, Coactivator recruitment: 0.1%
[7]
  IPP screening %, Coactivator recruitment: 1.4%
[8]
  IPP screening %, Coactivator recruitment: -0.1%
[9]
  IPP screening %, Coactivator recruitment: 3.0%
[3]
  Specific binding: -0.5%

## CC1(C)O[C@@H]2[C@@H](CO[C@@]3(COS(N)(=O)=O)OC(C)(C)O[C@@H]23)O1 [Topiramate, [(3aS,5aR,8aR,8bS)-2,2,7,7-Tetramethyltetrahydro-2H,3aH,7H-bis[1,3]dioxolo[4,5-b:4',5'-d]pyran-3a-yl]methyl sulfamate (non-preferred name)]
[10]
  Peff: 3.75 cm/s x E-04
[5]; 100 uM
  IPP screening %, Coactivator recruitment: 2.2%
[11]; [13]
  Reported AUC0-t: 50540 ng·h/mL
  Reported cmax: 1.3281 µg/mL
  Reported tmax: 4 h
[11]; [14]
  Reported AUC0-t: 145000 ng·h/mL
  Reported cmax: 3.1578 µg/mL
  Reported tmax: 3 h
[11]; [15]
  Reported AUC0-t: 229000 ng·h/mL
  Reported cmax: 6.5205 µg/mL
  Reported tmax: 2 h
[11]; ref not given
  plasma half-life: over 20 h
[6]; 100 uM
  IPP screening %, Coactivator recruitment: 0.5%
[12]
  underprediction of the L3 result at L2 (Cmax): ≥ 5 fold

## (4S,4aR,5S,5aR,6S,12aS)-4-(Dimethylamino)-3,5,6,10,12,12a-hexahydroxy-6-methyl-1,11-dioxo-1,4,4a,5,5a,6,11,12a-octahydrotetracene-2-carboxamide--hydrogen chloride (1/1) [Oxytetracycline hydrochloride]
[11]; [16]
  Reported AUC0-t: 5731 ng·h/mL
  Reported cmax: 1.2 µg/mL
  Reported tmax: 2 h
[11]; [17]
  Reported AUC0-t: 4455 ng·h/mL
  Reported cmax: 0.88 µg/mL
  Reported tmax: 3 h
[11]; [18]
  Reported AUC0-t: 7198 ng·h/mL
  Reported cmax: 1.43 µg/mL
  Reported tmax: 3 h
[11]; [19]
  Reported AUC0-t: 79420 ng·h/mL
  Reported cmax: 2.25 µg/mL
  Reported tmax: 74 h
[11]; [20]
  Reported AUC0-t: 8279 ng·h/mL
  Reported cmax: 1.51 µg/mL
  Reported tmax: 2 h
[11]; [21]
  Reported AUC0-t: 7800 ng·h/mL
  Reported cmax: 1.45 µg/mL
  Reported tmax: 3 h
[7]
  IPP screening %, Coactivator recruitment: 31.2%
[8]
  IPP screening %, Coactivator recruitment: -0.1%
dog; 12 months (dog), 24 months (rat)
  PoD (NOAEL): 50 mg/kg bw/day
